{"source": "patent US9096518B2", "about": "“Substituted hydroxamic acids and uses thereof” (Millennium Pharmaceuticals, Inc., priority 2009, dated 2015)", "data": [{"biological_target": "T1, purified human HDAC6 (Homo sapiens, UniProt Q9UBN7)", "T1 construct": "purchased BPS Bioscience 5006", "T1 sequence (Q9UBN7 1-1215)": "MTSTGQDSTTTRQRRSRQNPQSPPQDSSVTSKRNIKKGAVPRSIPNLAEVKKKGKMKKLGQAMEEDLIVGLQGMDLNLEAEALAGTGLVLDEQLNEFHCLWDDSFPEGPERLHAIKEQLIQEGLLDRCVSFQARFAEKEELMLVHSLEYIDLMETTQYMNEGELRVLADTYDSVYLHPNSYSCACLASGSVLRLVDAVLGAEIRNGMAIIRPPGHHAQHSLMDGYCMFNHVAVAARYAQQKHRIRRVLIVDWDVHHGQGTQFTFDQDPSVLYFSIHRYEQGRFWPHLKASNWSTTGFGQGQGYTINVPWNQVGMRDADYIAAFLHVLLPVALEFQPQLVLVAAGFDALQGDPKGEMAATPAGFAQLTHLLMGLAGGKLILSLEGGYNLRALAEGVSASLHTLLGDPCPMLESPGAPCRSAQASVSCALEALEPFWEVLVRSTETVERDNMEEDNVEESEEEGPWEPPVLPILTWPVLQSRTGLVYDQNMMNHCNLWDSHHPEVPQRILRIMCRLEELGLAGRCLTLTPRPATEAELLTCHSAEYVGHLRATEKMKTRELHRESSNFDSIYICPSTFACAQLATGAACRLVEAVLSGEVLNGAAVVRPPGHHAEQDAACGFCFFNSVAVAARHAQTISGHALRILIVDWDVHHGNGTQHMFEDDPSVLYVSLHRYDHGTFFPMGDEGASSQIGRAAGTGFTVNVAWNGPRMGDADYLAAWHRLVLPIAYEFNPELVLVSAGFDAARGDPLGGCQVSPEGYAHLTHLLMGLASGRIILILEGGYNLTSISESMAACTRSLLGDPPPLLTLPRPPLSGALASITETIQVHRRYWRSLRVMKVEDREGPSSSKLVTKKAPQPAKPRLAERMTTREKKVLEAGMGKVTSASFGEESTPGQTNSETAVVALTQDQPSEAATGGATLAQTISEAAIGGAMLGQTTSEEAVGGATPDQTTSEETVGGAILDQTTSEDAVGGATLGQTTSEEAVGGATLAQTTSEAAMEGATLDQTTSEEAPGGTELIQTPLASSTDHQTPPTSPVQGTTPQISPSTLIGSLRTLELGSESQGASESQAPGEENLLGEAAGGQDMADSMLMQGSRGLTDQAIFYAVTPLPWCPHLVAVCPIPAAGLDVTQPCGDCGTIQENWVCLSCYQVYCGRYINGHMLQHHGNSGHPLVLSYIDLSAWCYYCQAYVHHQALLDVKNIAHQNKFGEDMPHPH", "experiment": "HDAC6 Enzyme Assay", "type": "biochemical", "procedure,_shortened": "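Purified human HDAC6 incubated 1 h at 30 °C with Ac-Arg-Gly-Lys(Ac)-AMC peptide and compound; reaction stopped with trichostatin A, then trypsin releases AMC, read by fluorescence (Ex 340/Em 460 nm). IC50 from concentration-response curves relative to DMSO controls.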", "units": {"IC50": "nM"}, "values": [{"smiles": "O=C(NO)c1ccc2c(c1)CCN(C(=O)C13CC4CC(CC(C4)C1)C3)C2", "note": "[Compound 33, 2-[1-adamantylcarbonyl]-N-hydroxy-1,2,3,4-tetrahydroisoquinoline-6-carboxamide]", "IC50": "< 50"}, {"smiles": "O=C(NO)c1ccc2c(c1)CCN(CCOc1ccccc1)C2", "note": "[Compound 63, N-hydroxy-2-(2-phenoxyethyl)-1,2,3,4-tetrahydroisoquinoline-6-carboxamide]", "IC50": "100 to 500"}, {"smiles": "O=C(NO)c1ccc2c(c1)CCN(C(=O)c1ccc(-n3cccc3)cc1)C2", "note": "[Compound 14, N-hydroxy-2-[4-(1H-pyrrol-1-yl)benzoyl]-1,2,3,4-tetrahydroisoquinoline-6-carboxamide]", "IC50": "50 to 100"}, {"smiles": "CC(C)(C(=O)N1Cc2ccc(C(=O)NO)cc2C1)c1ccc(Cl)cc1", "note": "[Compound 80, 2-[2-(4-chlorophenyl)-2-methylpropanoyl]-N-hydroxyisoindoline-5-carboxamide]", "IC50": "< 50"}, {"smiles": "O=C(NO)c1ccc2c(c1)CCN(C(=O)C1CCCCC1)C2", "note": "[Compound 5, 2-(cyclohexylcarbonyl)-N-hydroxy-1,2,3,4-tetrahydroisoquinoline-6-carboxamide]", "IC50": "50 to 100"}, {"smiles": "CCCNC(=O)N1CCc2cc(C(=O)NO)ccc2C1", "note": "[Compound 97, N^6-hydroxy-N^2-propyl-3,4-dihydroisoquinoline-2,6(1H)-dicarboxamide]", "IC50": "50 to 100"}, {"smiles": "CC(C)c1ccc(S(=O)(=O)N2CCc3cc(C(=O)NO)ccc3C2)cc1", "note": "[Compound 42, N-hydroxy-2-[(4-isopropylphenyl)sulfonyl]-1,2,3,4-tetrahydroisoquinoline-6-carboxamide]", "IC50": "100 to 500"}, {"smiles": "COc1ccc(-c2ccc(S(=O)(=O)N3CCc4cc(C(=O)NO)ccc4C3)cc2)cc1", "note": "[Compound 43, N-hydroxy-2-[(4′-methoxybiphenyl-4-yl)sulfonyl]-1,2,3,4-tetrahydroisoquinoline-6-carboxamide]", "IC50": "50 to 100"}, {"smiles": "CC1(C(=O)N2CCc3cc(C(=O)NO)ccc3C2)CCCCC1", "note": "[Compound 28, N-hydroxy-2-[(1-methylcyclohexyl)carbonyl]-1,2,3,4-tetrahydroisoquinoline-6-carboxamide]", "IC50": "100 to 500"}]}]}
